Assay results taken from US8048879B2, “Substituted 4,5,6,7-tetrahydro-isoxazolo[4,5-c]pyridine compounds and use thereof for producing medicaments” (Gruenenthal GmbH, priority 2005, dated 2011).
Where two headings read alike, the source gives them in different places.

Target: T1, 5-HT transporter (Rattus norvegicus, UniProt P31652)
T1 construct: from tissue; host or cells: rat brain (medulla and pons), synaptosomes, P2 fraction
Experiment: 5-HT uptake inhibition, synaptosomes from rat brain (medulla and pons)
Format: biochemical
Description: b) Method for Determining Noradrenalin and 5-HT Uptake Inhibition:
Synaptosomes from rat brain regions are freshly isolated for in vitro studies, as described in the publication “The isolation of nerve endings from brain” by E. G. Gray and V. P. Whittaker, J. Anatomy 96, pages 79-88, 1962. The corresponding literature description is hereby introduced as a reference and is deemed to be part of the disclosure.
The tissue (hypothalamus for the determination of noradrenalin uptake inhibition and medulla and pons for the determination of 5-HT uptake inhibition) is homogenised in ice-cooled 0.32 M sucrose (100 mg of tissue/1 mL) in a glass homogeniser with Teflon pestle using five complete up and down strokes at 840 revolutions/minute.
The homogenate is centrifuged at 4° C. for 10 minutes at 1000 g. After subsequent centrifugation at 17000 g for 55 minutes, the synaptosomes (P2 fraction) are obtained, which are resuspended in 0.32 M […] (0.5 mL/100 mg of original weight).
The particular uptake is measured in a 96-well microtitre plate. The volume is 250 μL and the incubation proceeds at room temperature (approx. 20-25° C.) under an O2 atmosphere.
The incubation time is 7.5 minutes for [^3H]-NA and 5 minutes for [^3H]-5-HT. The 96 samples are then filtered through a Unifilter GF/B® microtitre plate (Packard) and washed with 200 mL of incubated buffer using a “Brabdel MPXRI-96T Cell-Harvester”. The Unifilter GF/B plate is dried for 1 hour at 55° C. The plate is then sealed with a Back Seal® (Packard) and 35 μL of scintillation fluid are added per well (Ultima Gold®, Packard). After sealing with a top Seal® (Packard) and establishing an equilibrium (around 5 hours), radioactivity is determined in a “Trilux 1450 Microbeta” (Wallac).
The quantity of protein used in the above determination corresponds to the values known from the literature, as for example described in “Protein measurement with the folin phenol reagent”, Lowry et al., J. Biol. Chem., 193, 265-275, 1951.
A detailed description of the method may additionally be found in the literature, for example in M. Ch. Frink, H.-H. Hennies, W. Engelberger, M. Haurand and B. Wilffert (1996) Arzneim.-Forsch./Drug Res. 46 (III), 11, 1029-1036.
The following characteristics were determined for the NA or 5-HT transporter: […]

T1 sequence (P31652 whole entry): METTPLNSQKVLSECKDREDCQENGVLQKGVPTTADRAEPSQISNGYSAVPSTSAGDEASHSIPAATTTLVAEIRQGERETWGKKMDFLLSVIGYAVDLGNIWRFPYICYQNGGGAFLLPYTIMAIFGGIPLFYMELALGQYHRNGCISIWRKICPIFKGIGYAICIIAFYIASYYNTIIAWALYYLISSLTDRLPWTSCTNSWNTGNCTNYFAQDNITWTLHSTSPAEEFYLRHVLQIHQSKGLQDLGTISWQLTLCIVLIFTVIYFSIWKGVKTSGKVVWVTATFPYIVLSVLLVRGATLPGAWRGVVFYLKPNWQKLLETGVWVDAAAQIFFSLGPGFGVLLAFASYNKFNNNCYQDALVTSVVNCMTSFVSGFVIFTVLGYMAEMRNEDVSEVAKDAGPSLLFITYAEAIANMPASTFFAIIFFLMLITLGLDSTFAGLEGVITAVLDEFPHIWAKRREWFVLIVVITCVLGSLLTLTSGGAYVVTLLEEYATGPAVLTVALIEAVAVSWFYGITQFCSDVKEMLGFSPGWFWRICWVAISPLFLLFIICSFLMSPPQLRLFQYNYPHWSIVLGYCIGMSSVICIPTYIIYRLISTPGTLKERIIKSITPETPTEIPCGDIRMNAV

Structure (SMILES) | inhibition at 10 µM | also measured
CN(C)CCNC(=O)c1noc2c1CN(C(=O)c1cc(C(C)(C)C)nn1C)CC2 [Example 41, 5-(5-tert-butyl-2-methyl-2H-pyrazole-3-carbonyl)-4,5,6,7-tetrahydro-isoxazolo[4,5-c]pyridine-3-carboxylic acid (2-dimethylamino-ethyl) amide] | 76% | –
O=C(c1noc2c1CN(S(=O)(=O)c1ccc(F)cc1)CC2)N1CC=C(c2ccc(F)cc2)CC1 [Example 42, [5-(4-fluoro-benzenesulfonyl)-4,5,6,7-tetrahydro-isoxazolo[4,5-c]pyridin-3-yl]-[4-(4-fluorophenyl)-3,6-dihydro-2H-pyridin-1-yl]-methanone] | 69% | –
CC(=O)Nc1ccc(C(=O)N2CCc3onc(C(=O)NCC4CC4)c3C2)cc1 [Example 45, 5-(4-acetylamino-benzoyl)-4,5,6,7-tetrahydro-isoxazolo[4,5-c]pyridine-3-carboxylic acid cyclopropylmethyl amide] | 85% | –
Cc1nn(-c2ccccc2)nc1C(=O)N1CCc2onc(C(=O)NCc3cccnc3)c2C1 [Example 46, 5-(5-methyl-2-phenyl-2H-[1,2,3]triazole-4-carbonyl)-4,5,6,7-tetrahydro-isoxazolo[4,5-c]pyridine-3-carboxylic acid (pyridin-3-ylmethyl) amide] | 79% | –
O=C(NCCc1ccccc1Cl)c1noc2c1CN(S(=O)(=O)c1cc(Cl)ccc1Cl)CC2 [Example 52, 5-(2,5-dichloro-benzenesulfonyl)-4,5,6,7-tetrahydro-isoxazolo[4,5-c]pyridine-3-carboxylic acid [2-(2-chlorophenyl)-ethyl] amide] | 83% | –
COc1ccc(S(=O)(=O)N2CCc3onc(C(=O)Nc4ccc(C)cc4)c3C2)cc1 [Example 53, 5-(4-methoxy-benzenesulfonyl)-4,5,6,7-tetrahydro-isoxazolo[4,5-c]pyridine-3-carboxylic acid p-tolyl amide] | 89% | –
O=C(NCc1ccc(F)cc1)c1noc2c1CN(C(=O)COc1ccccc1)CC2 [Example 54, 5-(2-phenoxy-acetyl)-4,5,6,7-tetrahydro-isoxazolo[4,5-c]pyridine-3-carboxylic acid 4-fluorobenzyl amide] | 84% | –
COc1ccc(S(=O)(=O)N2CCc3onc(C(=O)N4CCN(C(C)=O)CC4)c3C2)cc1 [Example 55, 1-{4-[5-(4-methoxy-benzenesulfonyl)-4,5,6,7-tetrahydro-isoxazolo[4,5-c]pyridine-3-carbonyl]-piperazin-1-yl}-ethanone] | 68% | –
Cc1ccc(S(=O)(=O)N2CCc3onc(C(=O)NCc4ccc(S(N)(=O)=O)cc4)c3C2)cc1 [Example 56, 5-(toluene-4-sulfonyl)-4,5,6,7-tetrahydro-isoxazolo[4,5-c]pyridine-3-carboxylic acid 4-sulfamoyl-benzyl amide] | – | 5-HT uptake (rat), 10 μM, % inhibition (10 µM): 96%
O=C(NCCN1CCOCC1)c1noc2c1CN(S(=O)(=O)c1cccs1)CC2 [Example 57, 5-(thiophene-2-sulfonyl)-4,5,6,7-tetrahydro-isoxazolo[4,5-c]pyridine-3-carboxylic acid (2-morpholin-4-yl-ethyl) amide] | 63% | –
COc1ccc(C(=O)N2CCc3onc(C(=O)NCCN(C)C)c3C2)cc1 [Example 58, 5-(4-methoxy-benzoyl)-4,5,6,7-tetrahydro-isoxazolo[4,5-c]pyridine-3-carboxylic acid (2-dimethylamino-ethyl) amide] | 81% | –
CC1C(NC(=O)c2noc3c2CN(S(=O)(=O)N(C)C)CC3)CC2CC1C2(C)C (stereo not shown) [Example 60, 5-dimethylsulfamoyl-4,5,6,7-tetrahydro-isoxazolo[4,5-c]pyridine-3-carboxylic acid (2,6,6-trimethyl-bicyclo[3.1.1]hept-3-yl) amide] | 81% | –
O=C(NC1CCc2ccccc21)c1noc2c1CN(S(=O)(=O)c1ccccc1)CC2 (stereo not shown) [Example 61, 5-benzenesulfonyl-4,5,6,7-tetrahydro-isoxazolo[4,5-c]pyridine-3-carboxylic acid indan-1-yl amide] | 64% | –
COCCCNC(=O)c1noc2c1CN(S(=O)(=O)c1ccc(OC)cc1)CC2 [Example 62, 5-(4-methoxy-benzenesulfonyl)-4,5,6,7-tetrahydro-isoxazolo[4,5-c]pyridine-3-carboxylic acid (3-methoxy-propyl) amide] | 67% | –
O=C(NCCN1CCCC1)c1noc2c1CN(C(=O)COCc1ccccc1)CC2 [Example 64, 5-(2-benzyloxy-acetyl)-4,5,6,7-tetrahydro-isoxazolo[4,5-c]pyridine-3-carboxylic acid (2-pyrrolidin-1-yl-ethyl) amide] | 77% | –
Cc1ccc(N2CCN(C(=O)c3noc4c3CN(S(=O)(=O)c3cc(Cl)ccc3Cl)CC4)CC2)c(C)c1 [Example 65, [5-(2,5-dichloro-benzenesulfonyl)-4,5,6,7-tetrahydro-isoxazolo[4,5-c]pyridin-3-yl]-[4-(2,4-dimethyl-phenyl)-piperazin-1-yl]-methanone] | 88% | –
C=CCCC(=O)N1CCc2onc(C(=O)NCC3CC3)c2C1 [Example 66, 5-Pent-4-enoyl-4,5,6,7-tetrahydro-isoxazolo[4,5-c]pyridine-3-carboxylic acid cyclopropylmethyl amide] | 62% | –
CC(C)C(NC(=O)c1noc2c1CN(S(=O)(=O)c1cccc(C(F)(F)F)c1)CC2)C(=O)OC(C)(C)C (stereo not shown) [Example 67, 3-methyl-2-{[5-(3-trifluoromethyl-benzenesulfonyl)-4,5,6,7-tetrahydro-isoxazolo[4,5-c]pyridine-3-carbonyl]-amino}-butanoic acid tert-butyl ester] | 73% | –
O=C(NCc1ccc(Cl)cc1Cl)c1noc2c1CN(S(=O)(=O)c1cccc(C(F)(F)F)c1)CC2 [Example 69, 5-(3-trifluoromethyl-benzenesulfonyl)-4,5,6,7-tetrahydro-isoxazolo[4,5-c]pyridine-3-carboxylic acid 2,4-dichloro-benzyl amide] | 64% | –
CN(C)S(=O)(=O)N1CCc2onc(C(=O)N(CCC#N)Cc3cccnc3)c2C1 [Example 70, 5-dimethylsulfamoyl-4,5,6,7-tetrahydro-isoxazolo[4,5-c]pyridine-3-carboxylic acid (2-cyano-ethyl)-pyridin-3-ylmethyl-amide] | 63% | –
O=C(NCCN1CCCC1)c1noc2c1CN(C(=O)CC1CCCC1)CC2 [Example 71, 5-(2-cyclopentyl-acetyl)-4,5,6,7-tetrahydro-isoxazolo[4,5-c]pyridine-3-carboxylic acid (2-pyrrolidin-1-yl-ethyl) amide] | 69% | –
Cc1nn(-c2ccccc2)nc1C(=O)N1CCc2onc(C(=O)NCc3ccc(F)cc3)c2C1 [Example 72, 5-(5-methyl-2-phenyl-2H-[1,2,3]triazole-4-carbonyl)-4,5,6,7-tetrahydro-isoxazolo[4,5-c]pyridine-3-carboxylic acid 4-fluorobenzyl amide] | 70% | –
CCCCC(CC)CNC(=O)c1noc2c1CN(S(=O)(=O)c1cccc(C(F)(F)F)c1)CC2 (stereo not shown) [Example 73] | – | 5-HT uptake (rat), 10 μM, % inhibition: 63%
Cc1ccc(C(=O)N2CCc3onc(C(=O)NCCN(C)C)c3C2)c(F)c1F [Example 74] | – | 5-HT uptake (rat), 10 μM, % inhibition: 62%
O=C(NCc1cccc(Cl)c1Cl)c1noc2c1CN(S(=O)(=O)c1ccc(OC(F)(F)F)cc1)CC2 [Example 75, 5-(4-trifluoromethoxy-benzenesulfonyl)-4,5,6,7-tetrahydro-isoxazolo[4,5-c]pyridine-3-carboxylic acid 2,3-dichloro-benzyl amide] | 65% | –
CN(C)S(=O)(=O)N1CCc2onc(C(=O)NCCc3ccc(Cl)cc3)c2C1 [Example 76, 5-dimethylsulfamoyl-4,5,6,7-tetrahydro-isoxazolo[4,5-c]pyridine-3-carboxylic acid [2-(4-chlorophenyl)-ethyl] amide] | 63% | –
O=C(NCCN1CCCC1)c1noc2c1CN(C(=O)c1ccc(Cl)nc1)CC2 [Example 77, 5-(6-chloro-pyridine-3-carbonyl)-4,5,6,7-tetrahydro-isoxazolo[4,5-c]pyridine-3-carboxylic acid (2-pyrrolidin-1-yl-ethyl) amide] | 62% | –
COC(=O)CCCC(=O)N1CCc2onc(C(=O)NCc3ccc(F)cc3)c2C1 [Example 78, 5-[3-(4-fluoro-benzylcarbamoyl)-6,7-dihydro-4H-isoxazolo[4,5-c]pyridin-5-yl]-5-oxo-pentanoic acid methyl ester] | 70% | –
